Measurements reported in paper doi:10.1101/208439v1 (biorxiv, 2017).
Read-outs that look alike come from different tables or passages of the source. One block for each compound: values may come before it.

Legend:
[1] = biological target: T1, SET8 (Homo sapiens, UniProt Q9NQR1); test: biochemical
T1 construct: gene KMT5A
T1 sequence (Q9NQR1 1-393): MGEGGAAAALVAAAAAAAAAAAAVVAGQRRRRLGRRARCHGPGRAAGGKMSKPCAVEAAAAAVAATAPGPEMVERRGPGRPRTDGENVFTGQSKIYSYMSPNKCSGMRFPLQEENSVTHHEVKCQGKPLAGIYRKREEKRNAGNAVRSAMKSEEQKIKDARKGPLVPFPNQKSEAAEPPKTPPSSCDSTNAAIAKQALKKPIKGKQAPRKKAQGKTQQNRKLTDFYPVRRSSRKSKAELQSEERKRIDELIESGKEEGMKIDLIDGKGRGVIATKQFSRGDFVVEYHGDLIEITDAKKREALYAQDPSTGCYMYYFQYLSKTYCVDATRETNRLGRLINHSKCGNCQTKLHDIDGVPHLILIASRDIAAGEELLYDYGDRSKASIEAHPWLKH

[2] = biological target: ASH1L (Homo sapiens, UniProt Q9NR48); conditions: inhibitor; read-out: Control IC50 (µM), Chaetocin
[3] = biological target: T2, NSD3 (Homo sapiens, UniProt Q9BZ95); test: biochemical
T2 sequence (Q9BZ95 1021-1322): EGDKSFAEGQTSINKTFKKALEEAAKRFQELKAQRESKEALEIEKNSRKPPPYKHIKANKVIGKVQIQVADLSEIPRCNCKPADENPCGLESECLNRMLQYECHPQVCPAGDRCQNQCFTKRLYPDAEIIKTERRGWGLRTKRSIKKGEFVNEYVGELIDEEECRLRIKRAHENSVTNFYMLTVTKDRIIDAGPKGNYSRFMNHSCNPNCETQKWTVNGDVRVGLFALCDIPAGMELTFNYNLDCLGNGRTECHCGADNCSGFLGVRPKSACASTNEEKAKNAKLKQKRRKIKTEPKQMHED

[4] = biological target: PRMT7 (Homo sapiens, UniProt Q9NVM4); test: biochemical
Chain of PRMT7 (Q9NVM4 whole entry): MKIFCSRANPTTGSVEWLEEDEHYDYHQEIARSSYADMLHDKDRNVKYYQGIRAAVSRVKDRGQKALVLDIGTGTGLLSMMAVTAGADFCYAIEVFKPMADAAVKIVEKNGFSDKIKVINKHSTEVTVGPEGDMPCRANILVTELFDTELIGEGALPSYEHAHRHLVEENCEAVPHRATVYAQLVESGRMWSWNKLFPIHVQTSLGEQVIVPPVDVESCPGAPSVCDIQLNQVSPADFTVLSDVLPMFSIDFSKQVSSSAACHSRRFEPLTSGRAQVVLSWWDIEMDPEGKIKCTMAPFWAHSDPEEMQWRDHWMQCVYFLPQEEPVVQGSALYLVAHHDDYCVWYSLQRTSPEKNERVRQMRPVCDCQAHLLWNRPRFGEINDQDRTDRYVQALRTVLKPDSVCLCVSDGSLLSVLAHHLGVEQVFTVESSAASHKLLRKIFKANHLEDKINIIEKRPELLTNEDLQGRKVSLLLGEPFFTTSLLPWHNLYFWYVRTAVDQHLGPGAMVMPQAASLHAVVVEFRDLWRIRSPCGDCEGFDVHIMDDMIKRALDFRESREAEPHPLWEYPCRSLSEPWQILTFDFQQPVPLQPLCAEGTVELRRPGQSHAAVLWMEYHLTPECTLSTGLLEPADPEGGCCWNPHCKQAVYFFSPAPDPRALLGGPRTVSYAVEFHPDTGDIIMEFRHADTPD

[5] = biological target: T3, GLP (Homo sapiens, UniProt Q9H9B1); test: biochemical
T3 construct: gene EHMT1
T3 sequence (Q9H9B1 1-1298): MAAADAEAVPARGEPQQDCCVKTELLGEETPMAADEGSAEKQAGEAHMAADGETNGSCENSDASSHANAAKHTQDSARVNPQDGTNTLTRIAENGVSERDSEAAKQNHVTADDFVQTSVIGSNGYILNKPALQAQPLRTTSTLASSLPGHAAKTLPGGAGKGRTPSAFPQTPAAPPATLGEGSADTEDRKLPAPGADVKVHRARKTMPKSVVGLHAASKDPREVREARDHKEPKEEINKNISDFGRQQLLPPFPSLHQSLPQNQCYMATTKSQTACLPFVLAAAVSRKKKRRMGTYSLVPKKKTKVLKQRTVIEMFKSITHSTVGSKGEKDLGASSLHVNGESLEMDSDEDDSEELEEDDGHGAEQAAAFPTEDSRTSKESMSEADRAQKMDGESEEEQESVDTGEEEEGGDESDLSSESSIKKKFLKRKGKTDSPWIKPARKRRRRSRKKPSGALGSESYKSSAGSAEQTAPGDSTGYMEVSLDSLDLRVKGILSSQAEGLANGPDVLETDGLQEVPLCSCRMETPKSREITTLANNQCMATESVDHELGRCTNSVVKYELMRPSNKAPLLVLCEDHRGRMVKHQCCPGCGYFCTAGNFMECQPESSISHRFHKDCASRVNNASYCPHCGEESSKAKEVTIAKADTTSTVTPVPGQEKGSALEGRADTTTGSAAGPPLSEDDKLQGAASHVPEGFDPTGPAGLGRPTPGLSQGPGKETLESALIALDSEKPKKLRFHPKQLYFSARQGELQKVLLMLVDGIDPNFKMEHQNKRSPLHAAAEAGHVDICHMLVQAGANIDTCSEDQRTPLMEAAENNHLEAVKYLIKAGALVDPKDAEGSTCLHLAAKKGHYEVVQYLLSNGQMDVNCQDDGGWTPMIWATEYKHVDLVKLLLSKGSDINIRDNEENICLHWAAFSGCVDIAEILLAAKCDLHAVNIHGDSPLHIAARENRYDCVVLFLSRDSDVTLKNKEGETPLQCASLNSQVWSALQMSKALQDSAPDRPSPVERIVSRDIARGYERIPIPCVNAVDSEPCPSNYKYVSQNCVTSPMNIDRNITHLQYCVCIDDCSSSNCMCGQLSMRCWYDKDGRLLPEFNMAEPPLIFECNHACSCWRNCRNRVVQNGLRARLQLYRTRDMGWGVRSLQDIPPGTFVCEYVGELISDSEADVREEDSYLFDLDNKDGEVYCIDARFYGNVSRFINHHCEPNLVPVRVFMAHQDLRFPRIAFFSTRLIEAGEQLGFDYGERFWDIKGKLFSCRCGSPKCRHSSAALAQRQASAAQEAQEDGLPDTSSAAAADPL

[6] = biological target: T4, NSD2 SET domain (Homo sapiens, UniProt O96028); test: biochemical; design: Surface plasmon resonance binding to NSD2 SET domain
T4 construct: SET domain, residues 934-1241, N-terminal His tag, E. coli
T4 sequence (O96028 934-1241): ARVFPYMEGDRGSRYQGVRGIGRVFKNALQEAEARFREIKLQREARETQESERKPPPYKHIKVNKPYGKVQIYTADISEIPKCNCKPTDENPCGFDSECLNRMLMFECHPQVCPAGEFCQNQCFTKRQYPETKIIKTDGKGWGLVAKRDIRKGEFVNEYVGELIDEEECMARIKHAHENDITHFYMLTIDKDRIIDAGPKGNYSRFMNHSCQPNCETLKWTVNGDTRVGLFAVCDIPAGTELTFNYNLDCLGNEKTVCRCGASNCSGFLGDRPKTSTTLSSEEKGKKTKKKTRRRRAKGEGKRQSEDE
Method: To support an on-target mechanism of action for the five inhibitors, surface plasmon resonance (SPR) was used to determine whether each inhibitor interacts with the catalytic SET domain of NSD2. […] Chaetocin bound the SET domain with an apparent dissociation constant of 20 nM. Additionally, the data indicated super-stoichiometric binding, which might be due to a binding ratio higher than 1:1 that is consistent with chaetocin’s two disulfide moieties forming adducts with the NSD2 protein, or compound aggregation (data not shown) ([56]).

[7] = biological target: T4, NSD2 SET domain; test: SPR Biacore 8K, single-cycle kinetics, […] model; assay type: binding
[8] = biological target: T5, NSD1 (Homo sapiens, UniProt Q96L73); test: HotSpot [3H]SAM filter-binding methyltransferase assay; assay type: biochemical
T5 construct: residues 1538-2696, N-terminal His tag, insect cell/baculovirus
T5 sequence (Q96L73 1538-2696): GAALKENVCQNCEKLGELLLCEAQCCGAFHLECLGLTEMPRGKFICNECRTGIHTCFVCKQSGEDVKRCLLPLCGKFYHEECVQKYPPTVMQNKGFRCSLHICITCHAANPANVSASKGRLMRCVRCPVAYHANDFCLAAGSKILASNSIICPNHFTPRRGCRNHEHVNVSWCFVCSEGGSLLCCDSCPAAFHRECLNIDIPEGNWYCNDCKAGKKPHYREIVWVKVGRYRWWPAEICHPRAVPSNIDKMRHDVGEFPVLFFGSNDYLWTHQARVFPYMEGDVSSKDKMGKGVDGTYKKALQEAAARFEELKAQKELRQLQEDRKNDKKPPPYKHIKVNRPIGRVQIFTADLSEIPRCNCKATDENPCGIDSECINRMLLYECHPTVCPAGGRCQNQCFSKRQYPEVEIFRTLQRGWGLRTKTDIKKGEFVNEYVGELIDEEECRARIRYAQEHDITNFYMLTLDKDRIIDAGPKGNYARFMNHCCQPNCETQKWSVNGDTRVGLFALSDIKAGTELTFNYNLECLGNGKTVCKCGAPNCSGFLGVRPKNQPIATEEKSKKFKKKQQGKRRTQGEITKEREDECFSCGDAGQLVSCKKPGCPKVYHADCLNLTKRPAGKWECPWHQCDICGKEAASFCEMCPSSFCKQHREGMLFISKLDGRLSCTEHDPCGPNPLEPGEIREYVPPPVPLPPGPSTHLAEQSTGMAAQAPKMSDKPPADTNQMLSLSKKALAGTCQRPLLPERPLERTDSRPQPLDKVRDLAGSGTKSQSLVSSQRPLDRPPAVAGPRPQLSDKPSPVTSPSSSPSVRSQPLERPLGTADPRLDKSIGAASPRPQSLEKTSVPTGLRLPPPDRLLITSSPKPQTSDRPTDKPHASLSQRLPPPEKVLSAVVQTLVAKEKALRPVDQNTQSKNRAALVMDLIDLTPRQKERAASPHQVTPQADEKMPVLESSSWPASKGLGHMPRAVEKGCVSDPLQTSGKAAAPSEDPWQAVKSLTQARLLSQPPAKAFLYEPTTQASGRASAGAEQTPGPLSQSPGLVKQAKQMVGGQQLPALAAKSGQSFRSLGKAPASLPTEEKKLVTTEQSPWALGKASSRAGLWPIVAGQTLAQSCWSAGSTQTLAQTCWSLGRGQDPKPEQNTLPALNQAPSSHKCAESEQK

[9] = biological target: T6, DNMT3b (Homo sapiens, UniProt Q9UBC3); test: as above; assay type: biochemical
T6 construct: residues 2-853, N-terminal GST fusion, insect cell/baculovirus

[10] = apparent, super-stoichiometric binding, binder

- IC50 [1]: 950 nM
SMILES: Cc1ccc(NC2=CC(=O)c3sc(C)nc3C2=O)cc1 [Ryuvidine]

SMILES: CN1C(=O)[C@@]23C[C@]4([C@]56C[C@@]78SS[C@@](CO)(C(=O)N7[C@H]5Nc5ccccc56)N(C)C8=O)c5ccccc5N[C@@H]4N2C(=O)[C@]1(CO)SS3 [Chaetocin]
- IC50 [2]: 0.1 µM
- IC50 [3]: 90 nM
- IC50 [4]: 156000 nM
- IC50 [5]: 77000 nM
- Kd ([6]; apparent, super-stoichiometric binding): 20 nM
- koff [6, 10]: 4.59e-05 s⁻¹
- kon [6, 10]: 2210 M⁻¹ s⁻¹

- Kd [7]: 4200 nM
- koff ([6]; read-out: koff): 0.017 s⁻¹
- kon ([6]; read-out: kon): 4060 M⁻¹ s⁻¹
SMILES: C[S+](CC[C@H](N)C(=O)O)C[C@H]1O[C@@H](n2cnc3c(N)ncnc32)[C@H](O)[C@@H]1O (stereo partly shown) [SAM]

- IC50 [8]: 9700 nM
- IC50 [9]: 65 nM
SMILES: Nc1ncnc2c1ncn2[C@@H]1O[C@H](CSCC[C@H](N)C(=O)O)[C@@H](O)[C@H]1O [SAH, reference compound]
